Experimental data taken from PubChem BioAssay AID449740 (Southern Research Specialized Biocontainment Screening …, 2010).
Calls of active or inactive are those of the source. The rule behind the calls is not given here.

Key:
[1] = polymyxin IC50 shift, round 3, mechanism study, late-stage follow-up (AID 449740); conditions: Salmonella Typhi WT vs phoP-, polymyxin IC50 shift, OD600 24 h, at 150 µM, stronger effect = higher value
[2] = test system: Salmonella Typhi WT vs phoP-, polymyxin IC50 shift, OD600 24 h; test: as above
[3] = measured here: phoP- strain shift
[4] = measured here: wild-type strain shift

SMILES	polymyxin IC50 shift difference WT minus phoP- [1]	polymyxin IC50 shift [1, 3]	polymyxin IC50 shift [1, 4]	IC50 [2] [µM]
S=C(NCCc1ccc(Cl)cc1)Nc1ccncc1	-1.02 (inactive)	6.57	5.55	
CCn1cc(C(=O)O)c(=O)c2cc(F)c(N3CCN(C(=S)Nc4ccccc4C)CC3)cc21		-2.44	4.87	19
O=C(Nc1ccc(I)cc1)N1CCCN(Cc2ccccc2F)C1	-9.38 (inactive)	5.34	-4.04	
CCn1cc(C(=O)O)c(=O)c2cc(F)c(N3CCN(C(=S)Nc4ccccc4OC)CC3)cc21		-0.353	4.08	19
O=C(Nc1ccc(Cl)cc1)N1CCCN(Cc2ccc(Br)cc2)C1	-3.85 (inactive)	0.497	-3.36	
O=C(Nc1ccc(Cl)cc1)N1CCCN(Cc2ccccc2Br)C1	-0.534 (inactive)	6.73	6.2	
